# Experimental data reported in publication PMC12328218 (Nature, 2025).
# Read-outs that look alike come from different tables or passages of the source.
# Experiments:
# Format in all cases: cell-based, Mycobacterium tuberculosis
# [1] = system: M. tuberculosis H37Rv CRISPRi PurF low knockdown strain; assay: microbe, parasite or virus in culture
# [2] = system: JNJ-6640-treated M. tuberculosis
# [3] = system: M. tuberculosis CRISPRi purF knockdown strains
smiles,measurement,setting,value
COc1nc2ccc(Br)cc2cc1[C@@H](c1ccccc1)[C@@](O)(CCN(C)C)c1cccc2ccccc12 [Bedaquiline],EC50,[1],44 nM
same,change in susceptibility following purF transcript knockdown,[1],no change
same,EC50,"[1]; Mycobacterium tuberculosis, H37RV",61 nM
Nc1nc2nc[nH]c2c(=O)[nH]1 [Guanine],effect of nucleobase addition on JNJ-6640-treated M. tuberculosis,[2],no substantial effect
O=c1[nH]c(=O)c2nc[nH]c2[nH]1 [Xanthine],effect of nucleobase addition on JNJ-6640-treated M. tuberculosis,[2],no substantial effect
O=c1[nH]cnc2nc[nH]c12 [Hypoxanthine],concentration partially rescuing inhibition of de novo purine biosynthesis,[3],exceeding 0.1 mM
same,effect of nucleobase addition on JNJ-6640-treated M. tuberculosis,[2],rescue
same,rescue of JNJ-6640 activity,[2],rescues JNJ-6640 activity
Nc1ncnc2[nH]cnc12 [Adenine],effect on rescue of purF knockdown,[3],limited effect
same,effect of nucleobase addition on JNJ-6640-treated M. tuberculosis,[2],no substantial effect
